Legend:
[1] = test system: hfRPE monolayers; experiment: fluid transport (JV, TEP, RT) across hfRPE monolayers in modified Üssing chamber; format: cell-based, human
Excerpt: Confluent monolayers of hfRPE cultured on transwells were mounted in a modified Üssing chamber and transepithelial water flow measurements (JV) were made with a capacitance probe technique as described previously in Maminishkis, A., et al., Invest Ophthalmol Vis Sci, 2006, 47, 3612-3624; Shi, G., et al., Invest Ophthalmol Vis Sci, 2008, 49, 4620-4630; Edelman, J. L., et al., Invest Ophthalmol Vis Sci, 1991, 32, 3033-3040; Jiang, C., et al., Science, 1993, 262, 424-427; and Maminishkis, A., et al., Invest Ophthalmol Vis Sci, 2002, 43, 3555-3566, each incorporated herein by reference in its entirety.
Tissue viability was ascertained by recording transepithelial potential (TEP) and total tissue resistance (RT). It should be noted that the solution composition changes in this chamber were relatively slow (≈1-2 chamber volumes per minute) and the data sampling rate was once per minute, more than two orders of magnitude slower than the sampling rate in the electrophysiology chamber (see below). Therefore it was not possible to record fast changes, in seconds or minutes, in JV, TEP, or RT. After addition of IFNγ to the apical or basal baths, steady-state JV, TEP, and RT were recorded for 20-30 minutes. In control experiments, successive additions of IFNγ were made to test for the repeatability and reversibility of responses. To block IFNγ effects, RPE cells were incubated for 30-60 minutes with a blocking antibody against IFNγ R1, JAK inhibitor I, PKA inhibitors (H-89, EMD Biosciences; RP-8-Br-cAMPS, Sigma-Aldrich), nitric oxide synthase inhibitor (aminoguanidine hydrochloride, Sigma-Aldrich), P38 MAPK inhibitors (SB203580 or SB20290), or CHX. Other components of this signaling pathway were studied using P38 MAPK inhibitors (SB203580 and SB202190). Relatively specific Cl channel inhibitors, CFTRinh-172 or DIDS (EMD Biosciences, La Jolla, Calif.), were used to block cAMP or Ca^2+-activated Cl channels; experiments with CFTRinh-172 were performed as described in Muanprasat, C., et al., J Gen Physiol, 2004, 124, 125-137, incorporated herein by reference in its entirety. In chronic experiments, paired hfRPE tissues with matched RT values were incubated for 4-24 hours with IFNγ or CHX. The subsequent changes in JV, RT, and TEP were measured in Ringer's solution or serum free cell culture media as previously described in Shi, G., et al., Invest Ophthalmol Vis Sci, 2008 and Maminishkis, A., et al., Invest Ophthalmol Vis Sci, 2006, 47, 3612-3624, each incorporated herein by reference in its entirety. Intracellular levels of NO were elevated with 1-Hydroxy-2-oxo-3-(3-aminopropyl)-3-isopropyl-1-triazene (NOC-5, Enzo Life Sciences, Plymouth, Pa.). 8-Br-cGMP was purchased from Sigma-Aldrich.

[2] = test system: hfRPE cells; experiment: immunoblotting of JAK-STAT / MAP kinase signalling proteins in hfRPE; format: cell-based, human; details: 4 hours
Experimental: Immunoblotting was performed as previously described in Li, R. et al., 2007, Invest Ophthalmol Vis Sci, 48, 5722-5732, incorporated by reference in its entirety herein. Primary cultures of hfRPE and native human adult RPE cells were lysed using RIPA buffer (Sigma-Aldrich) supplemented with proteinase inhibitor cocktail (Roche). Total protein in the supernatant was measured (BCA™ protein assay, Pierce Biotechnology) and 20 µg of protein from cell lysate supernatants was electrophoresed on a 4-12% gradient Bis-Tris NuPAGE gel (Invitrogen) under reduced or non-reduced conditions. Resolved proteins were transferred to nitrocellulose membranes (membranes and XCell II™ Blot Module, Invitrogen).
The membranes were incubated with mouse anti-human IFNγ R1 monoclonal antibody (R&D Systems), anti-human IFNγ R2 (Santa Cruz Biotechnology), anti-human IFNAR1, anti-human IFNAR2 (Abcam), anti-IRF1, anti-IRF2, anti-IRF8 (Santa Cruz Biotechnology) or anti-CFTR antibody 217 (Cystic Fibrosis Foundation Therapeutics Inc., Bethesda, Md.), after blocking non-specific binding ((StartingBlock™ T20 (TBS), Pierce Biotechnology). Membranes were then incubated with horseradish peroxidase (HRP) conjugated secondary antibody (Pierce Biotechnology) and visualized using Supersignal® West Dura Extended Duration Substrate (Pierce Biotechnology) and imaged using an Autochemie™ system (UVP, Upland, Calif.). The antibody-specific bands for IRF-1, IRF-2, ICSBP (IRF-8) and GAPDH were around 91 kDa, […], respectively.
For phosphorylation studies, cells were starved for 24 hours in serum-free medium (“SFM,” MEM-α modification medium containing non-essential amino acids and Glutamine-Penicillin-Streptomycin). Cells were treated with IFNγ (5-50 ng/ml) in SFM at various time points at 37° C. and lysed with RIPA buffer supplemented with proteinase inhibitor cocktail (Roche) and Halt™ phosphatase inhibitor cocktail (Pierce Biotechnology). 40 μg of protein was electrophoresed. As in the immunoblotting experiments described above, except that the membranes were incubated with anti-phospho-p38 MAP kinase (Thr180/Tyr182), anti-p38 MAP kinase, anti-phospho-Stat1 (Tyr701), anti-phospho-Stat1 (Ser727) or anti-Stat1 antibodies, respectively (each from Cell signaling Technology, Danvers, Mass.). The antibody-specific bands for STAT1/phospho-STAT1 (Tyr701) were around 84 kDa. GAPDH was blotted together with anti-GAPDH antibody (Abcam) and used as loading control. Cyclohexamide (“CHX”; Sigma-Aldrich), a protein synthesis inhibitor, was used at 62 μM.
For CFTR immunoblotting analysis, confluent monolayers of hfRPE were homogenized on ice in isolation solution (250 mM Sucrose, 10 mM Tris-HCl, 10 mM MgCl2, 1 mM CaCl2, pH 7.4) supplemented with Halt™ protease inhibitor cocktail, EDTA-free. Nuclei and intact cells were removed with centrifugation (900×g for 10 minutes at 4° C., followed by centrifugation at 10,000×g for 5 minutes). Crude plasma membrane proteins were collected after centrifugation at 100,000×g for 1 hour at 4° C.

[3] = H-89 40 μM pre-treatment 30 minutes

## Nc1nc2c(nc(Br)n2[C@@H]2O[C@@H]3COP(=O)(O)O[C@H]3[C@H]2O)c(=O)[nH]1 [8-Br-cGMP]
[1]; 100 μM both baths, FIG. 21, from 6.0
  JV after 8-Br-cGMP: 19.5 μl·cm^−2·hr^−1
[1]; four experiments, from 7.4±1.1
  Jv after 8-Br-cGMP: 15.8±1.6 μl·cm^−2·hr^−1

## O=S(=O)(NCCNC/C=C/c1ccc(Br)cc1)c1cccc2cnccc12 [H-89]
[1]; H-89 40 μM after IFNγ
  effect on IFNγ stimulated JV increase: significantly blocked
[1]; H-89 40 μM both sides, from 20.1±0.2
  JV after H-89 added to IFNγ-stimulated hfRPE: 8.3±1.3 μl·cm^−2·hr^−1
[1]; [3]
  effect on baseline level of JV: no significant effect
  effect on the effect of IFNγ: completely blocked
[1]; four experiments, steady-state baseline 12.8±5.2
  JV after H-89: 12.9±3.7 μl·cm^−2·hr^−1

## CC(C)N(CCCN)[N+]([O-])=NO [NOC-5, 1-Hydroxy-2-oxo-3-(3-aminopropyl)-3-isopropyl-1-triazene]
[1]; NOC-5 apical and basal baths, n=3
  effect on JV: more than doubled

## C[C@@H]1C[C@@H]([C@H](O)CC2CC(=O)NC(=O)C2)C(=O)[C@@H](C)C1 [CHX, cycloheximide]
[2]; CHX 62 μM, with IFNγ
  effect on IRF-2 protein: no effect
  effect on de novo synthesis of IRF-1: completely blocked
[2]; cycloheximide with IFNγ
  effect on STAT1 synthesis: partly inhibited
[1]; 62 μM, apical and basal, 30 minutes
  effect of CHX per se on JV: no apparent change
[1]; 4 hours of pre-treatment with CHX
  IFNγ-induced JV increase after CHX pre-treatment: no IFNγ-induced JV increase
[1]; CHX 62 μM 30 minutes
  effect on ability of CFTRinh−172 to block IFNγ-induced JV increase: did not affect
[1]; CHX 62 μM 30 minutes before IFNγ 5 ng/ml
  effect on IFNγ-induced increase in JV: no effect
[1]; IFNγ 5 ng/ml + CHX 62 μM, 24 hours, IFNγ alone 15.9, FIG. 14I
  JV after IFNγ and CHX: 8.8 μl·cm^−2·hr^−1
[1]; another experiment, IFNγ alone 14.9
  JV after IFNγ and CHX: 9.8 μl·cm^−2·hr^−1

From patent US9486502B2, “Methods of administering interferon gamma to absorb fluid from the subretinal space” (The United States of America, as represented by the …, priority 2008, dated 2016)
